Source: PMC2248166, “Quantitative peptide binding motifs for 19 human and mouse MHC class I molecules derived using positional scanning combinatorial peptide libraries” (Immunome Research, 2008)

Columns and labels:
HLA A*3001 = HLA A*3001 (Homo sapiens, UniProt P04439, D140H/D185E/E176W/F33S/G80R/H175R/K168Q/R138E/R41S); test: biochemical; format: binding
HLA B*1503 = HLA B*1503 (Homo sapiens, UniProt P01889, A329T/A93T/A95T/C349S/D201E/D98Y/E187L/E204Q/K202T/N87E/Q94N/R155S/R180L/S121R/S35A/V306I/V36M/Y140S/Y91S); test: biochemical; format: binding
HLA B*5301 = HLA B*5301 (Homo sapiens, UniProt P01889, A329T/A93T/A95T/C349S/D201E/D98Y/E176V/E187L/E204Q/E69T/G107R/I218V/K202T/L105A/L119I/N104I/Q94N/R106L/R155S/R180L/S101N/S121R/S35A/S48A/T118I/V127L/V306I/V36M/Y140S/Y91F); format: binding
HLA B*1501 = HLA B*1501 (Homo sapiens, UniProt P01889, A329T/A93T/A95T/C349S/D201E/D98Y/E187L/E204Q/E69M/E70A/K202T/N87E/Q94N/R155S/R180W/S121R/S35A/S48A/V306I/V36M/Y140S/Y91S); test: biochemical; format: binding
HLA B*5401 = HLA B*5401 (Homo sapiens, UniProt P01889, A329T/C349S/D138N/D201E/E176V/E187T/E204Q/E69G/I76V/K202T/L119W/R155S/R180L/S121T/S35A/S48A/V127L/V306I/V36M/Y140L); format: binding
HLA B*0801 = HLA B*0801 (Homo sapiens, UniProt P01889, A93T/A95T/D138N/E176V/E187T/K202T/Q94N/R180D/S35A/V36M/Y33D/Y91F); test: biochemical; format: binding
HLA B*0702 = HLA B*0702 (Homo sapiens, UniProt P01889); format: binding; settings: positional scanning combinatorial 9-mer library; normalized to 1.0 for the best residue at each position
HLA A*0201 = HLA A*0201 (Homo sapiens, UniProt P04439, D140Y/D185E/D98H/E176V/E277Q/G131W/G231S/I119V/I121R/I166T/I218V/L300P/L318F/N151K/N90K/P208A/P217A/Q86G/Q94H/R138H/R169H/T345S); settings: positional scanning combinatorial 9-mer library; normalized to 1.0 for the best residue at each position
HLA B*2705 = HLA B*2705 (Homo sapiens, UniProt P01889, D138H/D201E/E176V/E204Q/G107R/H137Y/K202T/N104T/N87E/Q56L/Q94K/R106L/R155S/R180L/S101D/S121N/S48T/Y140D/Y33H/Y91C); format: binding; settings: positional scanning combinatorial 9-mer library; normalized to 1.0 for the best residue at each position
H-2 D^b = H-2 D^b (Mus musculus, UniProt P01899); format: binding
H-2 D^b, sequence (P01887 21-119): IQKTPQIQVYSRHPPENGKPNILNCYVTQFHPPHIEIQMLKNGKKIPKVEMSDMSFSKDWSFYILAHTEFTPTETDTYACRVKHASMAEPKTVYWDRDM
H-2 D^b, sequence (P01899 25-362): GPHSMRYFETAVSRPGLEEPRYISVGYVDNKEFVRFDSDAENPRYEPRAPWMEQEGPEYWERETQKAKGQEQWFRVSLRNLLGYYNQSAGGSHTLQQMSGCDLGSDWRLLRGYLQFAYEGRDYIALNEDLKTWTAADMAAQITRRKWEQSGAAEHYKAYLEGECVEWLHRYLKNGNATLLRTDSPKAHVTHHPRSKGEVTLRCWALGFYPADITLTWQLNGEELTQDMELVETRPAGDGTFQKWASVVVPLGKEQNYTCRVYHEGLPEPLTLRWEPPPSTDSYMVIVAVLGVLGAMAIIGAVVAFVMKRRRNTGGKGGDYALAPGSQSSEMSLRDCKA

H-2 D^d = H-2 D^d (Mus musculus, UniProt P01900); format: binding
H-2 D^d, sequence (P01900 whole entry, looked up): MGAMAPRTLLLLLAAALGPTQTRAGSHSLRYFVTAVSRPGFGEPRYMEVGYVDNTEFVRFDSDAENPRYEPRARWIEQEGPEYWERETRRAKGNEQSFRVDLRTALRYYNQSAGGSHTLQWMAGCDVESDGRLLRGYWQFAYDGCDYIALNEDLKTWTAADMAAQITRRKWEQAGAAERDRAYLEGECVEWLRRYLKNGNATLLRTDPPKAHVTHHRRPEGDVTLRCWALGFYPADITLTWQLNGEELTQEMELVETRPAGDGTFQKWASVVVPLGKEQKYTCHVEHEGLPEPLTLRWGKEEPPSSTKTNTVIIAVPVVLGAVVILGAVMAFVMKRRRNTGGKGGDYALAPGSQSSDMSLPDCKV

HLA B*5802 = HLA B*5802 (Homo sapiens, UniProt P01889, A329T/C349S/D201E/D98Y/E176V/E187L/E204Q/E69T/G107R/I218V/I90N/K202T/L105A/N104I/N87E/Q89R/Q94S/R106L/R155S/R180L/R86G/S101N/S121W/S35A/S48A/V127L/V306I/V36M/Y140S/Y91M); format: binding
H-2 K^k = H-2 K^k (Mus musculus, UniProt P04223); format: binding
H-2 K^k, sequence (P01887 21-119): as the sequence (P01887 21-119) above
H-2 K^k, sequence (P04223 22-369): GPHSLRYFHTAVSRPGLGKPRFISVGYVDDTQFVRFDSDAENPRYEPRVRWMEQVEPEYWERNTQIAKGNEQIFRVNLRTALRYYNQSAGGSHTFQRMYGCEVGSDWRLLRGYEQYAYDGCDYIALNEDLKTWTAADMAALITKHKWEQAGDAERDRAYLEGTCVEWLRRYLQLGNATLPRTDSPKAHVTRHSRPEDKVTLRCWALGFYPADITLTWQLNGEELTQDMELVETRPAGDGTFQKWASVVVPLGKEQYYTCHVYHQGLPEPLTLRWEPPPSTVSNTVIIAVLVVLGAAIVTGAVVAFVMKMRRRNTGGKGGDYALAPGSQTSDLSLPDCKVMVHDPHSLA

HLA A*3201 = HLA A*3201 (Homo sapiens, UniProt P04439, A270S/D101S/D185E/E176V/E277Q/F133L/G103R/G107R/G231S/H175R/I121M/I218V/I322F/K168Q/L105A/L300P/L318F/M331R/P208A/P217A/Q94H/R106L/R138Q/S129P/T104I/T323A/T345S/V100E/V321M/V358M); test: biochemical; format: binding
HLA A*6802 = HLA A*6802 (Homo sapiens, UniProt P04439, A269V/D140Y/D185E/E176V/E277Q/E87N/F33Y/G231S/I121R/I166T/I218V/L180W/L300P/L318F/N151K/P208A/P217A/Q86R/R138H/R169H/S129P/T345S/V36M); format: binding
HLA B*3501 = HLA B*3501 (Homo sapiens, UniProt P01889, A329T/A93T/A95T/C349S/D201E/D98Y/E176V/E187L/E204Q/E69T/I218V/K202T/L119I/Q94N/R155S/R180L/S121R/S35A/S48A/T118I/V127L/V306I/V36M/Y140S/Y91F); format: binding
HLA B*5801 = HLA B*5801 (Homo sapiens, UniProt P01889, A329T/C349S/D201E/D98Y/E176V/E187L/E204Q/E69T/G107R/I218V/I90N/K202T/L105A/L119I/N104I/N87E/Q89R/Q94S/R106L/R155S/R180L/R86G/S101N/S121R/S35A/S48A/T118I/V127L/V306I/V36M/Y140S/Y91M); format: binding
HLA B*5101 = HLA B*5101 (Homo sapiens, UniProt P01889, A329T/A93T/A95T/C349S/D138N/D201E/D98Y/E187L/E204Q/E69T/G107R/I218V/K202T/L105A/L119W/N104I/Q94N/R106L/R155S/R180L/S101N/S121T/S35A/S48A/V306I/V36M/Y195H/Y91F); format: binding

Sequence | Normalized average relative binding affinity (ARB), HLA A*3001 (HLA A*3001) | Normalized average relative binding affinity (ARB), HLA B*1503 (HLA B*1503) | Normalized average relative binding affinity (ARB), HLA B*5301 (HLA B*5301) | Normalized average relative binding affinity (ARB), HLA B*1501 (HLA B*1501) | Normalized average relative binding affinity (ARB), HLA B*5401 (HLA B*5401) | Normalized average relative binding affinity (ARB), HLA B*0801 (HLA B*0801) | Normalized average relative binding affinity (ARB), HLA B*0702 (HLA B*0702) | Normalized average relative binding affinity (ARB), HLA A*0201 (HLA A*0201) | Normalized average relative binding affinity (ARB), HLA B*2705 (HLA B*2705) | Normalized average relative binding affinity (ARB), H-2 Db (H-2 D^b) | Normalized average relative binding affinity (ARB), H-2 Dd (H-2 D^d) | Normalized average relative binding affinity (ARB), HLA B*5802 (HLA B*5802) | Normalized average relative binding affinity (ARB), H-2 Kk (H-2 K^k) | Normalized average relative binding affinity (ARB), HLA A*3201 (HLA A*3201) | Normalized average relative binding affinity (ARB), HLA A*6802 (HLA A*6802) | Normalized average relative binding affinity (ARB), HLA B*3501 (HLA B*3501) | Normalized average relative binding affinity (ARB), HLA B*5801 (HLA B*5801) | Normalized average relative binding affinity (ARB), HLA B*5101 (HLA B*5101)
XFXXXXXXX [3064.0025] | 0.30 | 0.0062 | 0.018 | 0.099 | 0.00055 | 0.14 | 0.0028 | 0.0041 | 0.0016 | 0.086 | 0.074 | 0.030 | 0.016 | 0.012 | 0.017 | 0.012 | 0.097 | 0.086
XPXXXXXXX [3064.0033] | 0.024 | 0.031 | 1.0 | 0.015 | 0.19 | 1.0 | 1.0 | 0.0034 | 0.0016 | 0.036 | 0.064 | 0.051 | 0.017 | 0.022 | 0.041 | 1.0 | 0.014 | 1.0
XXTXXXXXX [3064.0057] | 0.0040 | 0.23 | 0.045 | 0.12 | 0.012 | 0.054 | 0.035 | 0.14 | 0.26 | 0.057 | 0.0048 | 0.16 | 0.11 | 0.16 | 0.14 | 0.14 | 0.39 | 0.14
XXFXXXXXX [3064.0045] | 0.041 | 0.62 | 0.19 | 0.83 | 0.11 | 0.19 | 0.067 | 0.63 | 1.0 | 0.099 | 0.0072 | 0.41 | 0.39 | 0.98 | 0.82 | 0.49 | 0.52 | 0.65
XXQXXXXXX [3064.0054] | 0.014 | 0.062 | 0.13 | 0.30 | 0.055 | 0.062 | 0.19 | 0.20 | 0.12 | 0.098 | 0.012 | 0.098 | 0.42 | 0.45 | 0.12 | 0.27 | 0.15 | 0.20
XXLXXXXXX [3064.0050] | 0.033 | 0.043 | 0.59 | 0.18 | 0.040 | 0.21 | 0.071 | 0.57 | 0.55 | 1.0 | 0.0040 | 0.59 | 0.70 | 0.58 | 0.10 | 0.43 | 0.61 | 0.54
